Series [1] has as its system ovarian tumor cells injected subcutaneously. The note with it: 31st day from tumor inoculation; 30 consecutive days; AY/NY 0.3 ml oral once per day, CTX 30 mg/kg/day s.c. The method, then: (§1) The biological composition comprising 10^8 cells per ml of activated and conditioned yeast cells of the strain Saccharomyces cerevisiae Hansen strain AS2.502 was prepared by the methods described in Section 5.1 and subsections therein
The mice injected with tumor cells were kept for 5 days and then were divided into 4 experimental groups of ten mice per group and one control group. The four experimental groups were triplicated (i.e., using a total of 120 mice in the experimental groups).
The mice received the biological compositions, untreated yeast cells, CTX or saline on the same day as the tumor cells were transplanted. The mice in group CK2 also started receiving saline on the same day as the other four groups. The biological compositions, untreated yeast cells and saline were administered orally by a feeding tube and the CTX by subcutaneous injection for 30 consecutive days. […] The weight of the mice and the weight of the tumor were determined by standard techniques.

For series [2] the test system is unchanged. The note with it: for Number of live animals remaining in the groups after 30 days of treatment: 30 mice per group. The method, then:
The survival time of mice after tumor injection and treatment was studied.
as §1
The animals were prepared in a similar manner as described in Section 8.1.
The mice injected with tumor cells were kept for 5 days and then were divided into 4 experimental groups of ten mice per group and one control group. The four experimental groups were triplicated (i.e., using a total of 120 mice in the experimental groups). In group 2AY, the mice received 0.3 ml of the biological composition once per day. In group 2NY, the mice received 0.3 ml of the untreated yeast cells once per day. In group 2CTX, the mice were injected subcutaneously with […] of cyclophosphamide (CTX) per kg body weight per day. In group 2CK1, the mice received 0.3 ml of physiological saline once per day.
The mice received the biological compositions, untreated yeast cells, CTX or saline on the same day as the tumor cells were transplanted. Mice in group 2CK2 also started receiving saline on the same day as the other four groups. The biological compositions, untreated yeast cells and saline were administered orally by a feeding tube and the CTX by subcutaneous injection for 30 consecutive days. The mice were observed over 6 months from the day of tumor inoculation and survival was recorded. The weight of the mice and the weight of the tumor were determined by standard techniques.

Series [3] deals with human ovarian cancer cells transplanted into mice. As to the kind of experiment: Tumor growth in mouse model of human ovarian cancer (orthotopic transplant), Example 6. Type of series: in vivo. The settings on record: 31st day from tumor inoculation; 30 consecutive days; AY/NY 0.3 ml oral once per day, TSPA 1.5 mg/kg/day i.v. The text has this:
Numerous animal studies have reported the use of orthotopic transplant technique in female mouse models to study the treating of ovarian cancer. See, for example, Animals for Experiments and Experimental Techniques, Chinese Medical Publisher, 1997. The use of orthotopic transplant technique has been highly successful in the development of mouse models of human ovarian cancer.
The human ovarian cancer sample is carefully selected before, during, and after surgery in order to ensure transplant occurred at the equivalent position in the mouse. The ovarian cancer sample is obtained from patients who have not received any radiation, chemotherapy, or immune enhancement treatment.
The mouse were starved for 24 hours before the surgery. The animals were generally anaesthetized. The barbiturates was first diluted in saline and then injected at 0.3 to 0.4 ml per animal, or 30 mg per kg body weight, into the abdomen of the mice. Under sterile conditions, a 1 cm long opening in the body cavity was cut along the right rib of the mice for engraftment of the tumor. About 10^6 units of tumor cells (about 2 mg tumor pieces per ml culture medium) were transplanted. Afterwards, the opening was sutured and the mice were put back into the cage. The animals were allowed to grow for three to five weeks or when the tumor grows to about 1 to 2 cm^3 in size. […]

Series [4] has the same test system. As to the kind of experiment: Survival over 6 months in mouse model of human ovarian cancer, Example 7. Type of series: in vivo. The settings on record: for Number of live animals remaining in the groups after 30 days of treatment: 30 mice per group. The method, then: In group 2TSPA, the mice were injected intravenously with 1.5 mg of thiotepa (TSPA) per kg body weight per day.

Where [5] appears, read: 2 months after cessation of treatment.
[6] abbreviates: 3 months after cessation of treatment.
Setting [7] is: 4 months after cessation of treatment.
The mark [8] stands for this setting: 5 months after cessation of treatment.
The mark [9] stands for this setting: 6 months after cessation of treatment.
Where [10] appears, read: mice that survived the 6 months observation.

The record followed here is patent US20040253251A1 (priority 2003, published 2004).

Read-outs that look alike come from different tables or passages of the source.

Consider `O=P1(N(CCCl)CCCl)NCCCO1` (centres unmarked) [CTX, cyclophosphamide], for which the “mean weight of mice and standard deviation” value in series [1] is reported as 20 ± 2.3 g; in series [2] (setting [10]) it was “all animals dead”. For the same compound, the results for the “mean weight of tumor nodules and standard deviation” value in series [1] and in series [2] (setting [10]) were 3.3 ± 1.4 g and “all animals dead”, respectively. Further, the “Number of live animals remaining in the groups after 30 days of treatment” value (from here on “Number of live animals remaining”) in series [2] (1 month after cessation of treatment, 2AY/2NY 0.3 ml oral per day, 2CTX 305 mg/kg/day s.c. (30 mg)) is 30; in series [2] (setting [5]), 30; in series [2] (setting [6]), 23; in series [2] (setting [7]), 14; in series [2] (setting [8]), 9; in series [2] (setting [9]), 0. Besides, the “survival outcome during the experiment” value in series [2] (in words, 6 months observation, 2NY 0.3 ml per day, 2CTX 30 mg/kg per day) is on record as “all died”.

As to `S=P(N1CC1)(N1CC1)N1CC1` [TSPA, thiotepa], the “mean weight of mice and standard deviation” value was 21 ± 2.1 g in series [3] and “all animals dead” in series [4] (setting [10]). Further, the “mean weight of tumor nodules and standard deviation” value is 3.1 ± 0.8 mg in series [3] and “all animals dead” in series [4] (setting [10]). The “Number of live animals remaining” value was 30 in series [4] (0 month after cessation of treatment, 2AY/2NY 0.3 ml oral per day, 2TSPA 1.5 mg/kg/day i.v.); 24 in series [4] (1 month after cessation of treatment); 7 in series [4] (setting [5]); 2 in series [4] (setting [6]); 0 in series [4] (setting [7]); 0 in series [4] (setting [8]). The “Number of live animals remaining” value in series [4] (setting [9]) amounted to 0. Further, in series [4] (in words, 6 months observation, 2NY 0.3 ml per day, 2TSPA 1.5 of thiotepa per kg per day), the “survival outcome during the experiment” value is “all died”.
